Experimental data from US20260000685A1, “PHARMACEUTICAL COMPOSITION FOR PREVENTING OR TREATING DEGENERATIVE BRAIN DISEASES, COMPRISING CANNABINOIDS AS ACTIVE INGREDIENT, AND USES THEREOF” (NEOCANNBIO CO., LTD., priority 2022, published 2026).

What was measured:
[1] = system: primary neuronal cells; experiment: Inhibition of Aβ1-42-induced neuron apoptosis (MTS cell viability); format: cell-based, ICR mice; conditions: different concentrations with Aβ1-42 (5 μM), 24 hours; compared to control treated with Aβ1-42 alone; FIG. 2
Protocol: Specifically, primary neuronal cells derived from ICR mice were seeded in 96-wells at 5×10^5 cells per well and cultured for 6 days. Afterwards, the six compounds of Example 1 above were treated at different concentrations and Aβ1-42 (5 μM) was treated to induce neuron apoptosis, and the cells were treated together for 24 hours. Afterwards, a MTS solution was added to the medium and incubated for 2 hours. Cytotoxicity (cell viability) was measured using a microplate spectrophotometer (Bio-Tek Power Wave XS, Winooski, VT, USA), and absorbance was measured at 490 nm.
Next, the neuron apoptosis inhibition efficacy for the same concentration of CBDA, CBD, THCA and THC was evaluated using the same method as above. Memantine, known as an Alzheimer's treatment, was used as a positive control group.

[2] = system: amyloid beta (Aβ); experiment: Western blotting of Aβ expression in Aβ1-42-treated primary neuronal cells; format: cell-based, ICR mice; conditions: with Aβ1-42 (5 μM), 24 hours; compared to Aβ1-42 alone; FIG. 5
Protocol: Specifically, primary neuronal cells derived from ICR mice were cultured for 6 days, and then treated with CBDA, THCA, THC, or CBN compounds while treating with Aβ1-42 (5 μM), and treated together for 24 hours. Next, Western blotting was conducted to confirm the expression levels of APP (Amyloid Precursor Protein), polymeric Aβ, and oligomeric AB in the cells.
(§1) To conduct Western blotting, tissues were homogenized in radioimmunoprecipitation assay buffer (Cell Signaling) to acquire tissue lysates. Tissue protein concentrations were determined using the Bio-Rad protein assay (Bio-Rad, Hercules, CA, USA), and Western blot analysis was conducted using 80-120 μg of protein. Next, the Western blotting samples prepared using the proteins were separated using 12% SDS-PAGE and transferred to a polyvinylidene fluoride membrane (PVDF) (Merck Millipore, Burlington, MA, USA; 0.4 μm). The PVDF was blocked with tris-buffered saline including 5% bovine serum albumin and Tween-20, and incubated with primary antibodies overnight at 4° C. After primary antibody incubation, the samples were incubated with HRP-conjugated secondary antibody (Sigma; 1:5000) for 1 hour at room temperature, and immunodetection was conducted using an enhanced chemiluminescence detection kit (GE Healthcare, Chicago, IL, USA).

[3] = system: phosphorylated tau (p-Tau); experiment: Western blotting of Tau/p-Tau in Aβ1-42-treated primary neuronal cells; format: cell-based, ICR mice; conditions: with Aβ1-42 (5 μM), 24 hours; compared to Aβ1-42 alone; FIG. 7
Protocol: as §1
Specifically, primary neuronal cells derived from ICR mice were cultured for 6 days, and then treated with CBDA, THCA, THC, or CBN compounds while treating with Aβ1-42 (5 μM), and treated together for 24 hours. Next, to confirm the expression levels of Tau and phosphorylated Tau (p-Tau) in the cells, Western blotting was conducted using the method disclosed in Example 4 above.

[4] = system: primary cortical neuron cells; experiment: Intracellular calcium concentration in neuronal cells (fluo-4 AM fluorescence imaging); format: cell-based; conditions: CBDA (6.25 μM), THCA (12.5 μM), THC (12.5 μM) with Aβ1-42 (5 μM), 24 hours; compared to Aβ1-42 alone; FIG. 8 and 9
Protocol: Specifically, primary cortical neuron cells were seeded in 96-wells at 5×10^5 cells per well and cultured for 6 days. […] Next, to measure the concentration of calcium ions in neuronal cells by detecting Ca^2+ using fluorescence imaging, the cells were washed with PBS and treated with 10 μM Ca^2+ indicator fluo-4 AM (Thermo) for […]. The stained sections were washed with PBS, covered with Prolong Gold Antifide Reagent (Invitrogen, Carlsbad, CA, USA) including DAPI nuclear stain, and observed using a microscope (Carl Zeiss, Oberkochen, Germany). Fluo-4 AM fluorescence signal intensity was measured using the Image J analysis program (National Institute of Health, Bethesda, […], USA).

SMILES	cell survival rate level [1]	expression level of AB [2]	expression level of p-Tau [3]	phosphorylation level of p-Tau [3]	intracellular calcium ion concentration [4]
CCCCCc1cc(O)c2c(c1)OC(C)(C)[C@@H]1CCC(C)=C[C@@H]21 [THC, (6aR, 10aR)-delta-9-Tetrahydrocannabinol]	significantly increased	significantly reduced	significantly reduced	significantly reduced	significantly reduced
CCCCCc1cc(O)c2c(c1)OC(C)(C)c1ccc(C)cc1-2 [CBN, 6,6,9-Trimethyl-3-pentyl-benzo[c]chromen-1-ol]	significantly increased	significantly reduced		not	
